Experimental data reported in patent US12239620B2, “Methods to decrease triglyceride synthesis in the liver” (MediciNova, Inc., priority 2021, dated 2025).

Legend:
Format in all cases: cell-based, human
CD36 = CD36 mRNA expression in HepG2 cells by qPCR; conditions: 48 hours
Description: FIG. 2 depicts the measurement of CD36 mRNA expression levels from HepG2 cells after treatment with one or more selected from arachidonic acid, T0901317, and MN-001. Y-axis: relative mRNA expression (arbitrary units) compared to a control.
(§1) The effect of MN-001 on the mRNA expression of molecules related to TG metabolism: (1) fatty acid translocase/CD36, which is involved in the uptake of ARA into hepatocytes in the liver, and (2) ABCG1, which plays a role in controlling tissue lipid levels by mediating transfer of cellular cholesterol to HDL, were also investigated by measuring extracted RNA from HepG2 cells and using real-time PCR. To this end, RNA was extracted from HepG2 cells (after treatment with one or more selected from 10 μM arachidonic acid (ARA), 1 μM T1317, and 10 μM MN-001 for 48 hours) and converted to cDNA.
After conversion to cDNA, the CD36 mRNA expression levels were measured by qPCR (FIG. 2). […] Saturated fatty acids (e.g., palmitic acid, stearic acid) and fructose induce adipogenic pathways and promote fat accumulation by increasing CD36 expression and modulating ChREBP, which regulates lipogenesis.

HepG2 cells = experiment: Intracellular triglyceride level in HepG2 cells after 48 hours incubation; conditions: for increase in TG synthesis compared to vehicle: 10 μM ARA, 1 μM T1317
Method: FIG. 1 depicts the measurement of intracellular triglyceride level in HepG2 cells after 48 hours incubation with one or more selected from arachidonic acid, T0901317, and MN-001. Y-axis: Δ intracellular triglycerides (μg/mg/protein). HepG2 cells (derived from human hepatocellular carcinoma samples) were incubated with one or more selected from 10 μM arachidonic acid (ARA), 1 μM LXR agonist T0901317 (“T1317”), and 10 μM MN-001 for 48 hours. T1317 stimulates LXR-SREBP-1c ChREPB signal, increases triglyceride (TG) synthesis in liver and exacerbates fatty liver. The intracellular triglyceride level was measured after the treatment (FIG. 1).

ABCG1 = ABCG1 mRNA expression in HepG2 cells by qPCR; conditions: 48 hours, 10 μM MN-001, 10 μM ARA
Description: FIG. 3 depicts the measurement of ABCG1 mRNA expression levels from HepG2 cells after treatment with one or more selected from arachidonic acid, T0901317, and MN-001. Y-axis: relative mRNA expression (arbitrary units) compared to a control.
as §1
In addition, the ABCG1 mRNA expression levels were also measured by qPCR (FIG. 3). ABCG1 is known to be highly expressed in lipid-loaded macrophages and mediates cholesterol efflux to HDL. ABCG1 deficiency leads to profound intracellular cholesterol accumulation in macrophages and hepatocytes.

[1] = 10 μM MN-001 added to 10 μM ARA

SMILES | increase of CD36 expression compared to control (CD36; 10 μM ARA) | increase in TG synthesis compared to vehicle (HepG2 cells) | lowering of CD36 expression (CD36; 10 μM MN-001, in the absence of ARA) | lowering of CD36 expression (CD36; 10 μM MN-001, in the presence of ARA (10 μM)) | suppression of CD36 expression compared to ARA alone (CD36; [1]) | downregulation of CD36 expression compared to control (CD36; 10 μM MN-001 alone) | suppression of the increase in TG synthesis by T1317 (HepG2 cells; 10 μM MN-001 added to 1 μM T1317) | suppression of the increase in TG synthesis by a combination of T1317 and ARA (HepG2 cells; 10 μM MN-001 added to 1 μM T1317 and 10 μM ARA) | suppression of the increase in TG synthesis by ARA (HepG2 cells; [1]) | upregulation of ABCG1 expression compared to control (ABCG1)
CCCCC/C=C\C/C=C\C/C=C\C/C=C\CCCC(=O)O [ARA, arachidonic acid, reference compound] | 1.8 fold | 15.3 fold |  |  |  |  |  |  |  | 
CCCc1c(SCCCOc2ccc(C(C)=O)c(OCCCC(=O)O)c2CCC)ccc(C(C)=O)c1O [MN-001] |  |  | 39% | 43% | 0.6 fold | 0.6 fold | 1.7 fold | 3.7 fold | 3.7 fold | 17 fold
O=S(=O)(c1ccccc1)N(CC(F)(F)F)c1ccc(C(O)(C(F)(F)F)C(F)(F)F)cc1 [T1317, reference compound] |  | 3.8 fold |  |  |  |  |  |  |  | 
